Assay results taken from patent US20240270821A1, “GIP/GLP1/GCG TRI-RECEPTOR AGONISTS AND USES THEREOF” (priority 2023, published 2024).
Starred links: 1 amine or outer side, 2 acyl side, 3 side chain; linkers in the order of their positions; H or OH if unused. Non-standard residues stand in square brackets, D forms with d. Residues, ends and D or L forms follow the SMILES beside them. Groups on a side chain read outwards from the residue. *: point of attachment. C18 diacid = O=C(O)CCCCCCCCCCCCCCCCC(=O)*; αMePhe(2-F) = C[C@](N)(Cc1ccccc1F)C(=O)O; γGlu = O=C(O)[C@H](CCC(=O)[*:2])N[*:1]; 4Pal = N[C@@H](Cc1ccncc1)C(=O)O; αMeL = CC(C)C[C@](C)(N)C(=O)O; αMeS = C[C@](N)(CO)C(=O)O; Orn = NCCC[C@H](N)C(=O)O; AEEA = NCCOCCOCC(=O)O; Aib = CC(C)(N)C(=O)O

Columns and labels:
Assay type in all cases: cell-based
[1] = biological target: T1, hGLP-1R (Homo sapiens, UniProt P43220); test: Functional cAMP activation in the presence of 0.1% casein (no HSA); details: read-out: Relative cAMP EC50, hGLP-1R;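 note: intracellular cAMP rise after 30 min at 37 °C read by HTRF, normalized between buffer only (0%) and maximal control ligand (100%), four-parameter variable-slope fit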
[2] = biological target: human GcgR (Homo sapiens, UniProt P47871); test: Functional cAMP activity in the presence of 1% HSA; details: read-out: cAMP Rel EC50, hGcgR
[3] = biological target: T1, hGLP-1R; test: Functional cAMP activity in the presence of 1% HSA; details: read-out: cAMP Rel EC50, hGLP-1R
[4] = biological target: hGcgR (Homo sapiens, UniProt P47871); test: Functional cAMP activation in the presence of 0.1% casein (no HSA); details: read-out: Relative cAMP EC50, hGcgR;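 note: intracellular cAMP rise after 30 min at 37 °C, read by HTRF against a cAMP standard curve, scaled from buffer only (0%) to maximal control ligand response (100%)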
[5] = biological target: T2, hGIPR (Homo sapiens, UniProt P48546); test: Functional cAMP activity in the presence of 1% HSA; details: read-out: cAMP Rel EC50, hGIPR
T2 sequence (P48546 22-466): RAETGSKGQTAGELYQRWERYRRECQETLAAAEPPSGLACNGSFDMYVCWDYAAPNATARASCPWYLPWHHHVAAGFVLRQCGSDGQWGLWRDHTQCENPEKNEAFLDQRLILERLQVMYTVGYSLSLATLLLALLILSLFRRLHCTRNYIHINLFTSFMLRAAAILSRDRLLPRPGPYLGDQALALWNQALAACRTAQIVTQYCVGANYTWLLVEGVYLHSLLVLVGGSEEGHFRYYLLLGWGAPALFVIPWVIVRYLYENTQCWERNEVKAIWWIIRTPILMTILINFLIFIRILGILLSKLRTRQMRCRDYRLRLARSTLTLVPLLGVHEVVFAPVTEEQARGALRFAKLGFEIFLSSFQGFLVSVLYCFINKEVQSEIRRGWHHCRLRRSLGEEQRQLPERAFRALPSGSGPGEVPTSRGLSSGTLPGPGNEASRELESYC

[6] = biological target: T2, hGIPR; test: Functional cAMP activation in the presence of 0.1% casein (no HSA); details: read-out: Relative cAMP EC50, hGIPR;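 note: intracellular cAMP rise after 30 min at 37 °C read by HTRF against a standard curve, scaled between buffer alone (0%) and top control ligand concentration (100%), four-parameter fit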

Chain of hGcgR (P47871 26-477): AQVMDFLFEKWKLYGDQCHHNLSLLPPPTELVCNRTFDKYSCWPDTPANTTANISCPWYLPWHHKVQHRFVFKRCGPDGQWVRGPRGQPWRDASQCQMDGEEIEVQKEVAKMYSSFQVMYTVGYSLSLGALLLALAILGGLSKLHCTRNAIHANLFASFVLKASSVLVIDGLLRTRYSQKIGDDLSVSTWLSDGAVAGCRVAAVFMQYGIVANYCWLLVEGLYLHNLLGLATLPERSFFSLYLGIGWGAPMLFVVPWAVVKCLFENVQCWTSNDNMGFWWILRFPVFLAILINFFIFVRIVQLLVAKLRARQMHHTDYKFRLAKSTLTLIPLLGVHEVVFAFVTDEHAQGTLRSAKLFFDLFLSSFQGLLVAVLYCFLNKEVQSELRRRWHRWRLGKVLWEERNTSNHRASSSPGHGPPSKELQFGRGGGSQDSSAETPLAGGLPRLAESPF
Chain of human GcgR (P47871 26-477): as above
T1 sequence (P43220 24-463): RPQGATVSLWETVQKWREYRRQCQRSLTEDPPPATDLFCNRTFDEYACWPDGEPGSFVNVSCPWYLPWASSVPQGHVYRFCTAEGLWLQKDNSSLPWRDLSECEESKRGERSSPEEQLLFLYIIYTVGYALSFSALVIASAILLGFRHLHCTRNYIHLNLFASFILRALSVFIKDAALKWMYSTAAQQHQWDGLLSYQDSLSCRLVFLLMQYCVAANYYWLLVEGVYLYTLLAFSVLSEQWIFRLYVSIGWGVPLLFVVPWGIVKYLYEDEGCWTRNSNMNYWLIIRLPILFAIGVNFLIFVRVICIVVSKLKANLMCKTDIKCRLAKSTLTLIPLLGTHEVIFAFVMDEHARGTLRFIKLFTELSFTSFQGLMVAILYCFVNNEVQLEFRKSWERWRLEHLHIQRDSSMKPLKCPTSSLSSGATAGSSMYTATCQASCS

Compound	EC50 [1] [nM]	EC50 [2] [nM]	EC50 [3] [nM]	EC50 [4] [nM]	EC50 [5] [nM]	EC50 [6] [nM]
CC[C@H](C)[C@H](NC(=O)[C@H](Cc1ccccc1)NC(=O)[C@H](C)NC(=O)C(C)(C)NC(=O)[C@H](CCC(N)=O)NC(=O)[C@H](C)NC(=O)[C@H](CCCCNC(=O)COCCOCCNC(=O)CC[C@H](NC(=O)CCCCCCCCCCCCCCCCC(=O)O)C(=O)O)NC(=O)[C@H](CCCCN)NC(=O)[C@H](CC(=O)O)NC(=O)[C@H](CC(C)C)NC(=O)[C@H](CC(C)C)NC(=O)[C@H](CCC(=O)O)NC(=O)[C@](C)(CO)NC(=O)[C@H](Cc1ccc(O)cc1)NC(=O)[C@H](CC(=O)O)NC(=O)[C@H](CO)NC(=O)[C@@H](NC(=O)[C@](C)(Cc1ccccc1F)NC(=O)[C@@H](NC(=O)CNC(=O)[C@H](CCC(N)=O)NC(=O)C(C)(C)NC(=O)[C@@H](N)Cc1ccc(O)cc1)[C@@H](C)O)[C@@H](C)O)C(=O)N[C@@H](CCC(=O)O)C(=O)N[C@@H](Cc1ccc(O)cc1)C(=O)N[C@@H](CC(C)C)C(=O)N[C@@H](CCC(=O)O)C(=O)N[C@@H](CCC(=O)O)C(=O)NCC(=O)NCC(=O)N1CCC[C@H]1C(=O)N[C@@H](CO)C(=O)N[C@@H](CO)C(=O)NCC(=O)N[C@@H](C)C(=O)N1CCC[C@H]1C(=O)N1CCC[C@H]1C(=O)N1CCC[C@H]1C(=O)N[C@@H](CCC(=O)O)C(N)=O [Example 467] (H-Y[Aib]QGT[αMePhe(2-F)]TSDY[αMeS]ELLDKK([AEEA-γGlu-C18 diacid])AQ[Aib]AFIEYLEEGGPSSGAPPPE-NH2)	0.358	850	36.4	9.34	10.7	0.0855
CC[C@H](C)[C@H](NC(=O)[C@H](Cc1ccccc1)NC(=O)[C@H](C)NC(=O)C(C)(C)NC(=O)[C@H](CCC(N)=O)NC(=O)[C@H](C)NC(=O)[C@H](CCCCNC(=O)COCCOCCNC(=O)COCCOCCNC(=O)CC[C@H](NC(=O)CCCCCCCCCCCCCCCCC(=O)O)C(=O)O)NC(=O)[C@H](CCCCN)NC(=O)[C@H](CC(=O)O)NC(=O)[C@H](CC(C)C)NC(=O)[C@H](CC(C)C)NC(=O)[C@@H](NC(=O)[C@](C)(CO)NC(=O)[C@H](Cc1ccc(O)cc1)NC(=O)[C@H](CC(=O)O)NC(=O)[C@H](CO)NC(=O)[C@@H](NC(=O)[C@](C)(Cc1ccccc1F)NC(=O)[C@@H](NC(=O)CNC(=O)[C@H](CCC(N)=O)NC(=O)C(C)(C)NC(=O)[C@@H](N)Cc1ccc(O)cc1)[C@@H](C)O)[C@@H](C)O)[C@@H](C)CC)C(=O)N[C@@H](CCC(=O)O)C(=O)N[C@@H](Cc1ccc(O)cc1)C(=O)N[C@@H](CC(C)C)C(=O)N[C@@H](CCC(=O)O)C(=O)N[C@@H](CCC(=O)O)C(=O)NCC(=O)NCC(=O)N1CCC[C@H]1C(=O)N[C@@H](CO)C(=O)N[C@@H](CO)C(=O)NCC(=O)N[C@@H](C)C(=O)N1CCC[C@H]1C(=O)N1CCC[C@H]1C(=O)N1CCC[C@H]1C(=O)N[C@@H](CCC(=O)O)C(N)=O [Example 468] (H-Y[Aib]QGT[αMePhe(2-F)]TSDY[αMeS]ILLDKK([AEEA-AEEA-γGlu-C18 diacid])AQ[Aib]AFIEYLEEGGPSSGAPPPE-NH2)	0.466	195	30.7	1.95	4.76	0.0222
CC[C@H](C)[C@H](NC(=O)[C@H](Cc1ccccc1)NC(=O)[C@H](C)NC(=O)C(C)(C)NC(=O)[C@H](CCC(N)=O)NC(=O)[C@H](C)NC(=O)[C@H](CCCCNC(=O)COCCOCCNC(=O)CC[C@H](NC(=O)CCCCCCCCCCCCCCCCC(=O)O)C(=O)O)NC(=O)[C@H](CCCN)NC(=O)[C@H](CC(=O)O)NC(=O)[C@H](CC(C)C)NC(=O)[C@](C)(CC(C)C)NC(=O)[C@@H](NC(=O)[C@](C)(CO)NC(=O)[C@H](Cc1ccncc1)NC(=O)[C@H](CC(=O)O)NC(=O)[C@H](CO)NC(=O)[C@@H](NC(=O)[C@](C)(Cc1ccccc1F)NC(=O)[C@@H](NC(=O)CNC(=O)[C@H](CCC(N)=O)NC(=O)C(C)(C)NC(=O)[C@@H](N)Cc1c[nH]cn1)[C@@H](C)O)[C@@H](C)O)[C@@H](C)CC)C(=O)N[C@H](CCC(=O)O)C(=O)N[C@@H](Cc1ccc(O)cc1)C(=O)N[C@@H](CC(C)C)C(=O)N[C@@H](CC(C)C)C(=O)N[C@@H](CCC(=O)O)C(=O)NCC(=O)NCC(=O)N1CCC[C@H]1C(=O)N[C@@H](CO)C(=O)N[C@@H](CO)C(=O)NCC(=O)N[C@@H](CCC(=O)O)C(=O)N1CCC[C@H]1C(=O)N[C@@H](CCC(=O)O)C(=O)N1CCC[C@H]1C(=O)N[C@@H](CCC(=O)O)C(N)=O [Example 479] (H-H[Aib]QGT[αMePhe(2-F)]TSD[4Pal][αMeS]I[αMeL]LD[Orn]K([AEEA-γGlu-C18 diacid])AQ[Aib]AFI[dE]YLLEGGPSSGEPEPE-NH2)	0.314	432	23.5	5.98	7.11	0.0905

More lines, now with the values ahead:

EC50 [1] [nM]	EC50 [2] [nM]	EC50 [3] [nM]	EC50 [4] [nM]	EC50 [5] [nM]	EC50 [6] [nM]	Compound
0.562	155	61.7	1.34	4.24	0.031	CC[C@H](C)[C@H](NC(=O)[C@H](Cc1ccccc1)NC(=O)[C@H](C)NC(=O)C(C)(C)NC(=O)[C@H](CCC(N)=O)NC(=O)[C@H](C)NC(=O)[C@H](CCCCNC(=O)COCCOCCNC(=O)COCCOCCNC(=O)CC[C@H](NC(=O)CCCCCCCCCCCCCCCCC(=O)O)C(=O)O)NC(=O)[C@H](CCCCN)NC(=O)[C@H](CC(=O)O)NC(=O)[C@H](CC(C)C)NC(=O)[C@H](CC(C)C)NC(=O)[C@@H](NC(=O)[C@](C)(CO)NC(=O)[C@H](Cc1ccc(O)cc1)NC(=O)[C@H](CC(=O)O)NC(=O)[C@H](CO)NC(=O)[C@@H](NC(=O)[C@](C)(Cc1ccccc1F)NC(=O)[C@@H](NC(=O)CNC(=O)[C@H](CCC(N)=O)NC(=O)C(C)(C)NC(=O)[C@@H](N)Cc1ccc(O)cc1)[C@@H](C)O)[C@@H](C)O)[C@@H](C)CC)C(=O)N[C@@H](CCC(=O)O)C(=O)N[C@@H](Cc1ccc(O)cc1)C(=O)N[C@@H](CC(C)C)C(=O)N[C@@H](CCC(=O)O)C(=O)N[C@@H](CCC(=O)O)C(=O)NCC(=O)NCC(=O)N1CCC[C@H]1C(=O)N[C@@H](CO)C(=O)N[C@@H](CO)C(=O)NCC(=O)N[C@@H](CCC(=O)O)C(=O)N1CCC[C@H]1C(=O)N1CCC[C@H]1C(=O)N1CCC[C@H]1C(=O)N[C@@H](CCC(=O)O)C(N)=O [Example 469] (H-Y[Aib]QGT[αMePhe(2-F)]TSDY[αMeS]ILLDKK([AEEA-AEEA-γGlu-C18 diacid])AQ[Aib]AFIEYLEEGGPSSGEPPPE-NH2)
0.375	647	35	4.43	2.57	0.0262	CC[C@H](C)[C@H](NC(=O)[C@H](Cc1ccccc1)NC(=O)[C@H](C)NC(=O)C(C)(C)NC(=O)[C@H](CCC(N)=O)NC(=O)[C@H](C)NC(=O)[C@H](CCCCNC(=O)COCCOCCNC(=O)CC[C@H](NC(=O)CCCCCCCCCCCCCCCCC(=O)O)C(=O)O)NC(=O)[C@H](CCCN)NC(=O)[C@H](CC(=O)O)NC(=O)[C@H](CC(C)C)NC(=O)[C@](C)(CC(C)C)NC(=O)[C@@H](NC(=O)[C@H](CO)NC(=O)[C@H](Cc1ccncc1)NC(=O)[C@H](CC(=O)O)NC(=O)[C@H](CO)NC(=O)[C@@H](NC(=O)[C@](C)(Cc1ccccc1F)NC(=O)[C@@H](NC(=O)CNC(=O)[C@H](CCC(N)=O)NC(=O)C(C)(C)NC(=O)[C@@H](N)Cc1ccc(O)cc1)[C@@H](C)O)[C@@H](C)O)[C@@H](C)CC)C(=O)N[C@@H](CCC(=O)O)C(=O)N[C@@H](Cc1ccc(O)cc1)C(=O)N[C@@H](CC(C)C)C(=O)N[C@@H](CCC(=O)O)C(=O)N[C@@H](CCC(=O)O)C(=O)NCC(=O)NCC(=O)N1CCC[C@H]1C(=O)N[C@@H](CO)C(=O)N[C@@H](CO)C(=O)NCC(=O)N[C@@H](CCC(=O)O)C(=O)N1CCC[C@H]1C(=O)N1CCC[C@H]1C(=O)N1CCC[C@H]1C(=O)N[C@@H](CO)C(N)=O [Example 486] (H-Y[Aib]QGT[αMePhe(2-F)]TSD[4Pal]SI[αMeL]LD[Orn]K([AEEA-γGlu-C18 diacid])AQ[Aib]AFIEYLEEGGPSSGEPPPS-NH2)
